This assay in a line: Compound was tested for binding activity against N-methyl-D-aspartic acid(NMDA) receptor in rat brain crude synaptic membranes. Format: cell membranes.

The term IC50 denotes the concentration at which inhibition is half-maximal. In turn, `O=C(O)[C@@H]1C[C@H](CP(=O)(O)O)CCN1` (stereo in doubt) [SELFOTEL] came in with an IC50 of 10000 nM. To `O=C(O)[C@@H]1C[C@H](CP(=O)(O)O)CCN1` (stereo in doubt; form 1) [SELFOTEL] belongs 69 nM; to `O=C(O)[C@@H]1C[C@H](CP(=O)(O)O)CCN1` (stereo in doubt; form 2) [SELFOTEL], 29 nM.

The record behind these values is ChEMBL document CHEMBL1129018, “Asymmetric synthesis of cis-()-(2R4S)-4-(phosphonomethyl)-2-piperidinecarboxylic acid, a potent NMDA receptor antagonist” (Bioorg Med Chem Lett, 1996).
